Data published in PMC3839997, “Identification of Glucose Transporters in Aspergillus nidulans” (PLoS ONE, 2013).

What was measured:
HxtC [1] = target: T1, HxtC (Aspergillus nidulans, UniProt C8VDD8); assay: competition of […]glucose uptake in S. cerevisiae EBY.VW4000 expressing the transporter; type: cell-based; details: tenfold excess of unlabelled sugar over [14C]glucose
T1 construct: gene ANIA_10891; full-length ORF from cDNA, untagged (with stop codon), expressed from pRH195 in S. cerevisiae EBY.VW4000; strain A4 given for the GFP construct
T1 sequence (C8VDD8 entry or part of it): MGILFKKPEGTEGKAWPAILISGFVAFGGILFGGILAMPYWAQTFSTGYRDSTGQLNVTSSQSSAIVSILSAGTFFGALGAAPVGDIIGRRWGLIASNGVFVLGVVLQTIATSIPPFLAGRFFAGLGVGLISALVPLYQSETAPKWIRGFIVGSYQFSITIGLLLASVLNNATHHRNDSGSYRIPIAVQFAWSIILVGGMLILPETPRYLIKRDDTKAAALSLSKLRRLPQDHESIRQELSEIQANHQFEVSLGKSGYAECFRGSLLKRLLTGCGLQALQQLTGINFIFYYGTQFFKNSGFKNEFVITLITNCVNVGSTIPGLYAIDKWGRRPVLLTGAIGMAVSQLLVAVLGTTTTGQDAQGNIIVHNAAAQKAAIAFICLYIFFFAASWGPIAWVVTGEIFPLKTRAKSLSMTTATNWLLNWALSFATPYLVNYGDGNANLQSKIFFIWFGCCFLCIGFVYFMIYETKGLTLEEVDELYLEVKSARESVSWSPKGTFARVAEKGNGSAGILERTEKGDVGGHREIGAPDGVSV

HxtC [2] = target: T1, HxtC; assay: […]glucose uptake in S. cerevisiae EBY.VW4000 expressing the transporter; type: cell-based; details: labelled compound; 30 °C; proton symport

Row | SMILES | % inhibition (HxtC [1]) | [14C]glucose uptake in S. cerevisiae EBY.VW4000 expressing the transporter (HxtC [2])
1 | OCC1(O)OC[C@@H](O)[C@@H](O)[C@@H]1O (some centres unmarked) [fructose] | unlabeled maltose, galactose, fructose and mannose were also able to inhibit to different levels | 
2 | OC[C@H]1OC(O)[C@H](O)[C@@H](O)[C@H]1O (some centres unmarked) [galactose] | unlabeled maltose, galactose, fructose and mannose were also able to inhibit to different levels | 
3 | OC[C@H]1OC(O)[C@H](O)[C@@H](O)[C@@H]1O (some centres unmarked) [glucose] |  | these data suggested that HxtB, HxtC, and HxtE mediated glucose transport via active proton symport
4 | OC[C@H]1O[C@H](O[C@H]2[C@H](O)[C@@H](O)C(O)O[C@@H]2CO)[C@H](O)[C@@H](O)[C@@H]1O (some centres unmarked) [maltose] | unlabeled maltose, galactose, fructose and mannose were also able to inhibit to different levels | 
5 | OC[C@H]1OC(O)[C@@H](O)[C@@H](O)[C@@H]1O (some centres unmarked) [mannose] | unlabeled maltose, galactose, fructose and mannose were also able to inhibit to different levels | 
